Reference: PubChem BioAssay (NCI)
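GI50 is the concentration that inhibits growth by half. TGI: concentration producing complete growth inhibition.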

Assays:
Experiment in all cases: inhibition of tumour cell growth, NCI panel, 384-well format
UACC-257 melanoma = system: UACC-257 melanoma
MALME-3M melanoma = system: MALME-3M melanoma
HCT-15 colon = system: HCT-15 colon
M14 melanoma = system: M14 melanoma
SK-OV-3 ovarian = system: SK-OV-3 ovarian
HCT-116 colon = system: HCT-116 colon
HOP-92 NSCLC = system: HOP-92 NSCLC
786-0 renal = system: 786-0 renal
IGROV1 ovarian = system: IGROV1 ovarian
U251 glioblastoma = system: U251 glioblastoma
MOLT-4 leukemia = system: MOLT-4 leukemia
KM12 colon = system: KM12 colon
HS 578T breast = system: HS 578T breast
MDA-MB-468 breast = system: MDA-MB-468 breast
SR leukemia = system: SR leukemia
UO-31 renal = system: UO-31 renal
NCI-H460 NSCLC = system: NCI-H460 NSCLC
A498 renal = system: A498 renal
BT-549 breast = system: BT-549 breast
HL-60(TB) leukemia = system: HL-60(TB) leukemia
ACHN renal = system: ACHN renal
PC-3 prostate = system: PC-3 prostate
T-47D breast = system: T-47D breast
NCI-H522 lung = system: NCI-H522 lung
DU-145 prostate = system: DU-145 prostate
A549 NSCLC = system: A549 NSCLC
NCI-H23 lung = system: NCI-H23 lung
SN12C renal = system: SN12C renal
MDA-MB-435 melanoma = system: MDA-MB-435 melanoma
RXF 393 renal = system: RXF 393 renal
NCI-H322M lung = system: NCI-H322M lung
OVCAR-3 ovarian = system: OVCAR-3 ovarian
SK-MEL-28 melanoma = system: SK-MEL-28 melanoma
OVCAR-8 ovarian = system: OVCAR-8 ovarian
EKVX NSCLC = system: EKVX NSCLC
SW-620 colon = system: SW-620 colon
MDA-MB-231 breast = system: MDA-MB-231 breast
UACC-62 melanoma = system: UACC-62 melanoma
SK-MEL-5 melanoma = system: SK-MEL-5 melanoma
SNB-19 CNS = system: SNB-19 CNS
CAKI-1 renal = system: CAKI-1 renal
K-562 leukemia = system: K-562 leukemia
OVCAR-5 ovarian = system: OVCAR-5 ovarian
SF-539 CNS = system: SF-539 CNS
SF-268 CNS = system: SF-268 CNS
TK-10 renal = system: TK-10 renal
MCF7 breast = system: MCF7 breast
SK-MEL-2 melanoma = system: SK-MEL-2 melanoma
SNB-75 CNS = system: SNB-75 CNS
HT29 colon = system: HT29 colon
NCI-H226 lung = system: NCI-H226 lung
HOP-62 NSCLC = system: HOP-62 NSCLC
SF-295 CNS = system: SF-295 CNS
COLO 205 colon = system: COLO 205 colon
OVCAR-4 ovarian = system: OVCAR-4 ovarian

Question: How did the GI50 (UACC-257 melanoma) turn out when `Cc1ccc(C(=O)Nc2cccc(C(F)(F)F)c2)cc1Nc1nc(-c2cccnc2)nc2c1cnn2C` was run?
Answer: 0.378 µM

Question: And the TGI (UACC-257 melanoma)?
Answer: 1.89 µM

Question: What about the GI50 (MALME-3M melanoma) of the same molecule?
Answer: 0.222 µM

Question: What about the TGI (MALME-3M melanoma) of the same molecule?
Answer: 0.757 µM

Question: And the GI50 (HCT-15 colon)?
Answer: 0.882 µM

Question: What about the TGI (HCT-15 colon) of the same molecule?
Answer: 2.16 µM

Question: What about the GI50 (M14 melanoma) of the same molecule?
Answer: 0.291 µM

Question: What about the TGI (M14 melanoma) of the same molecule?
Answer: 1.41 µM

Question: What about the GI50 (SK-OV-3 ovarian) of the same molecule?
Answer: 1.88 µM

Question: And the TGI (SK-OV-3 ovarian)?
Answer: 3.94 µM

Question: And the GI50 (HCT-116 colon)?
Answer: 0.372 µM

Question: What about the TGI (HCT-116 colon) of the same molecule?
Answer: 1.88 µM

Question: And the GI50 (HOP-92 NSCLC)?
Answer: 1.58 µM

Question: And the TGI (HOP-92 NSCLC)?
Answer: 5.85 µM

Question: And the GI50 ([…]-0 renal)?
Answer: 1.12 µM

Question: And the TGI (786-0 renal)?
Answer: 2.41 µM

Question: What about the GI50 (IGROV1 ovarian) of the same molecule?
Answer: 0.782 µM

Question: What about the TGI (IGROV1 ovarian) of the same molecule?
Answer: 2.6 µM

Question: And the GI50 (U251 glioblastoma)?
Answer: 1.63 µM

Question: And the TGI (U251 glioblastoma)?
Answer: 3.24 µM

Question: What about the GI50 (MOLT-4 leukemia) of the same molecule?
Answer: 0.593 µM

Question: And the TGI (MOLT-4 leukemia)?
Answer: 1.89 µM

Question: What about the GI50 (KM12 colon) of the same molecule?
Answer: 1.49 µM

Question: And the TGI (KM12 colon)?
Answer: 2.98 µM

Question: And the GI50 (HS 578T breast)?
Answer: 1.06 µM

Question: What about the TGI (HS 578T breast) of the same molecule?
Answer: 2.31 µM

Question: And the GI50 (MDA-MB-468 breast)?
Answer: 1.08 µM

Question: What about the TGI (MDA-MB-468 breast) of the same molecule?
Answer: 2.31 µM

Question: And the GI50 (SR leukemia)?
Answer: 0.39 µM

Question: What about the TGI (SR leukemia) of the same molecule?
Answer: 1.32 µM

Question: And the GI50 (UO-31 renal)?
Answer: 0.605 µM

Question: What about the TGI (UO-31 renal) of the same molecule?
Answer: 2.09 µM

Question: And the GI50 (NCI-H460 NSCLC)?
Answer: 0.383 µM

Question: And the TGI (NCI-H460 NSCLC)?
Answer: 1.75 µM

Question: What about the GI50 (A498 renal) of the same molecule?
Answer: 1.21 µM

Question: What about the TGI (A498 renal) of the same molecule?
Answer: 2.95 µM

Question: What about the GI50 (BT-549 breast) of the same molecule?
Answer: 1.67 µM

Question: And the TGI (BT-549 breast)?
Answer: 3.66 µM

Question: And the GI50 (HL-60(TB) leukemia)?
Answer: 0.0806 µM

Question: And the TGI (HL-60(TB) leukemia)?
Answer: 1.28 µM

Question: And the GI50 (ACHN renal)?
Answer: 1.03 µM

Question: And the TGI (ACHN renal)?
Answer: 2.51 µM

Question: And the GI50 (PC-3 prostate)?
Answer: 1.82 µM

Question: And the TGI (PC-3 prostate)?
Answer: 4.55 µM

Question: And the GI50 (T-47D breast)?
Answer: 1.29 µM

Question: And the TGI (T-47D breast)?
Answer: 2.7 µM

Question: And the GI50 (NCI-H522 lung)?
Answer: 1.38 µM

Question: And the TGI (NCI-H522 lung)?
Answer: 2.72 µM

Question: What about the GI50 (DU-145 prostate) of the same molecule?
Answer: 1.71 µM

Question: And the TGI (DU-145 prostate)?
Answer: 4.34 µM

Question: And the GI50 (A549 NSCLC)?
Answer: 1.38 µM

Question: And the TGI (A549 NSCLC)?
Answer: 2.96 µM

Question: What about the GI50 (NCI-H23 lung) of the same molecule?
Answer: 0.248 µM

Question: What about the TGI (NCI-H23 lung) of the same molecule?
Answer: 1.9 µM

Question: What about the GI50 (SN12C renal) of the same molecule?
Answer: 2.15 µM

Question: And the TGI (SN12C renal)?
Answer: 10.3 µM

Question: What about the GI50 (MDA-MB-435 melanoma) of the same molecule?
Answer: 0.487 µM

Question: And the TGI (MDA-MB-435 melanoma)?
Answer: 2.39 µM

Question: And the GI50 (RXF 393 renal)?
Answer: 0.137 µM

Question: What about the TGI (RXF 393 renal) of the same molecule?
Answer: 1.11 µM

Question: What about the GI50 (NCI-H322M lung) of the same molecule?
Answer: 2.06 µM

Question: And the TGI (NCI-H322M lung)?
Answer: 4.89 µM

Question: What about the GI50 (OVCAR-3 ovarian) of the same molecule?
Answer: 1.49 µM

Question: And the TGI (OVCAR-3 ovarian)?
Answer: 3.21 µM

Question: And the GI50 (SK-MEL-28 melanoma)?
Answer: 0.319 µM

Question: And the TGI (SK-MEL-28 melanoma)?
Answer: 1.84 µM

Question: And the GI50 (OVCAR-8 ovarian)?
Answer: 1.88 µM

Question: What about the TGI (OVCAR-8 ovarian) of the same molecule?
Answer: 4.79 µM

Question: And the GI50 (EKVX NSCLC)?
Answer: 1.15 µM

Question: What about the TGI (EKVX NSCLC) of the same molecule?
Answer: 3.08 µM

Question: And the GI50 (SW-620 colon)?
Answer: 0.955 µM

Question: What about the TGI (SW-620 colon) of the same molecule?
Answer: 2.26 µM

Question: What about the GI50 (MDA-MB-231 breast) of the same molecule?
Answer: 0.181 µM

Question: And the TGI (MDA-MB-231 breast)?
Answer: 3.87 µM

Question: And the GI50 (UACC-62 melanoma)?
Answer: 0.309 µM

Question: And the TGI (UACC-62 melanoma)?
Answer: 1.51 µM

Question: And the GI50 (SK-MEL-5 melanoma)?
Answer: 0.466 µM

Question: What about the TGI (SK-MEL-5 melanoma) of the same molecule?
Answer: 1.82 µM

Question: And the GI50 (SNB-19 CNS)?
Answer: 3.54 µM

Question: And the TGI (SNB-19 CNS)?
Answer: 13.3 µM

Question: And the GI50 (CAKI-1 renal)?
Answer: 0.972 µM

Question: What about the TGI (CAKI-1 renal) of the same molecule?
Answer: 2.15 µM

Question: And the GI50 (K-562 leukemia)?
Answer: 0.0122 µM

Question: And the TGI (K-562 leukemia)?
Answer: 0.029 µM

Question: And the GI50 (OVCAR-5 ovarian)?
Answer: 1.41 µM

Question: What about the TGI (OVCAR-5 ovarian) of the same molecule?
Answer: 8.45 µM

Question: And the GI50 (SF-539 CNS)?
Answer: 0.677 µM

Question: What about the TGI (SF-539 CNS) of the same molecule?
Answer: 2.06 µM

Question: And the GI50 (SF-268 CNS)?
Answer: 1.7 µM

Question: What about the TGI (SF-268 CNS) of the same molecule?
Answer: 4.21 µM

Question: And the GI50 (TK-10 renal)?
Answer: 1.37 µM

Question: What about the TGI (TK-10 renal) of the same molecule?
Answer: 3.13 µM

Question: And the GI50 (MCF7 breast)?
Answer: 1.31 µM

Question: What about the TGI (MCF7 breast) of the same molecule?
Answer: 2.62 µM

Question: And the GI50 (SK-MEL-2 melanoma)?
Answer: 0.24 µM

Question: And the TGI (SK-MEL-2 melanoma)?
Answer: 0.959 µM

Question: What about the GI50 (SNB-75 CNS) of the same molecule?
Answer: 1.96 µM

Question: And the TGI (SNB-75 CNS)?
Answer: 4.28 µM

Question: And the GI50 (HT29 colon)?
Answer: 0.341 µM

Question: And the TGI (HT29 colon)?
Answer: 1.33 µM

Question: What about the GI50 (NCI-H226 lung) of the same molecule?
Answer: 0.774 µM

Question: What about the TGI (NCI-H226 lung) of the same molecule?
Answer: 2.12 µM

Question: What about the GI50 (HOP-62 NSCLC) of the same molecule?
Answer: 1.41 µM

Question: And the TGI (HOP-62 NSCLC)?
Answer: 3.27 µM

Question: What about the GI50 (SF-295 CNS) of the same molecule?
Answer: 1.72 µM

Question: What about the TGI (SF-295 CNS) of the same molecule?
Answer: 3.15 µM

Question: What about the GI50 (COLO 205 colon) of the same molecule?
Answer: 0.522 µM

Question: What about the TGI (COLO 205 colon) of the same molecule?
Answer: 2.22 µM

Question: What about the GI50 (OVCAR-4 ovarian) of the same molecule?
Answer: 1.59 µM

Question: And the TGI (OVCAR-4 ovarian)?
Answer: 4.05 µM
